Experiment in all cases: growth of human tumour cells (NCI), 48 h
Experiment [1] concerns LOX IMVI melanoma.
For experiment [2], the system named is SK-OV-3 ovarian.
In experiment [3] the test system is HCT-15 colon.
For experiment [4], the system named is NCI/ADR-RES ovarian.
Experiment [5] deals with SW-620 colon.
Experiment [6] has as its system BT-549 breast.
Experiment [7] concerns SK-MEL-5 melanoma.
Experiment [8] relates to OVCAR-5 ovarian.
The test system of experiment [9] is SK-MEL-28 melanoma.
Experiment [10] deals with U251 CNS.
For experiment [11], the system named is ACHN renal.
The test system of experiment [12] is SR leukemia.
Experiment [13] concerns TK-10 renal.

SMILES strings stand for the structures.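 96-well plates; 48 h exposure; 5 concentrations. Endpoints by linear interpolation between flanking doses. Not reached: highest tested concentration assigned. TGI is the concentration that stops growth completely.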 Where a SMILES comes first, the peptide text is derived from it. The star is where a group is joined. Cbz = O=C(OCc1ccccc1)*; Boc = CC(C)(C)OC(=O)*; OBn = c1ccc(CO*)cc1

On to `Cc1cc2c(cc1-c1cc3c(cc1C)C(C(C)C)=C(O)C(=O)/C3=C\Nc1cccc3c(N)cccc13)/C(=C/Nc1cccc3c(N)cccc13)C(=O)C(O)=C2C(C)C`, for which the TGI in [1], in experiment [2], in experiment [3], in [4], in experiment [5] and in experiment [6] was more than 100 µM throughout. In addition, the TGI in experiment [7], in [8], in [9], in [10], in experiment [11] and in [12] was more than 100 µM each time. Further, the TGI in [13] is more than 100 µM.

For the molecule `Nc1nc(Cl)c(N)c(NCC2(CO)CC(O)C2)n1` (configuration not stated), the TGI in experiment [1], in experiment [2], in experiment [3], in experiment [4], in experiment [5] and in experiment [6] was more than 100 µM each time. Besides, the TGI in experiment [7], in experiment [8], in [9], in experiment [10], in experiment [11] and in [12] was more than 100 µM throughout. The molecule also came in with a TGI in experiment [13] of more than 100 µM.

For the molecule `CCOC(=O)c1cc(NC(=O)c2ccccc2)c(=O)n2c(cc3c(Cl)cccc32)c1O`, the TGI in experiment [1], in experiment [2], in experiment [3], in experiment [4], in experiment [5] and in experiment [6] was more than 100 µM throughout. Moreover, the TGI in [7], in [8], in experiment [9], in experiment [10], in experiment [11] and in [12] was more than 100 µM each time. For the same molecule, the TGI in experiment [13] is more than 100 µM.

For the molecule `O=C(c1no[n+]([O-])c1C(=O)c1csc2ccccc12)c1csc2ccccc12`, the TGI in [1] was determined as 5.37 µM; in experiment [2], 33 µM; in [3], 21.7 µM; in experiment [4] it was 56.3 µM; in experiment [5] it was 5.85 µM; in experiment [6] it was 19.3 µM. Moreover, the TGI was determined as 26.1 µM in [7]; 35.4 µM in experiment [8]; 11 µM in experiment [9]; 22.7 µM in experiment [10]; 16 µM in [11]; 0.27 µM in experiment [12]. The TGI in [13] amounted to 4.9 µM.

For the molecule `COc1ccc(C(c2ccccc2)N2C(=O)CCC2C(=O)O)cc1OC` (configuration not stated), the TGI in experiment [1], in experiment [2], in [3], in experiment [4], in experiment [5] and in experiment [6] was more than 100 µM in each case. Besides, the TGI in [7], in [8], in [9], in experiment [10], in experiment [11] and in experiment [12] was more than 100 µM in each case. In [13], the TGI is more than 100 µM.

For `O=Cc1cc(O)ccc1Br`, the TGI in [1] is 33.4 µM; in experiment [2] it was more than 100 µM; in experiment [3] it was 40.7 µM; in [4], more than 76.2 µM; in [5] it was more than 100 µM; in [6] it was more than 83.4 µM. In addition, the TGI in experiment [7] is 98.2 µM; in experiment [8], more than 100 µM; in [9] it was more than 100 µM; in experiment [10], 41.3 µM; in experiment [11], 60 µM; in [12] it was 17.3 µM. Also, the TGI in [13] came to 99 µM.

For the molecule `CC(C)c1cc(C(C)C)c(P2(=O)CC3C(Cl)(Cl)C3(C)C2)c(C(C)C)c1` (configuration not stated), the TGI turned out to be 21.5 µM in [1]; 31.3 µM in experiment [2]; 25.1 µM in [3]; 16 µM in [4]; 26.4 µM in [5]; 27.7 µM in experiment [6]. The TGI in experiment [7] turned out to be 22.4 µM; in [8], 30.5 µM; in experiment [9], 31.9 µM; in experiment [10], 22 µM; in [11], 25.1 µM; in experiment [12], 3.75 µM. Further, the TGI in experiment [13] was 24.5 µM.

Consider `COc1ccc(N=C/C=C/C(=C/COC(C)=O)OC(C)=O)cc1`, for which the TGI in [1] was more than 100 µM; in [2], more than 100 µM; in experiment [3] it was more than 100 µM; in experiment [4], more than 100 µM; in experiment [5], 32.6 µM; in experiment [6] it was more than 100 µM. The TGI in experiment [7] was 76.6 µM; in experiment [8], more than 100 µM; in experiment [9], 65.9 µM; in experiment [10] it was 72.3 µM; in [11], 34.4 µM; in experiment [12], more than 100 µM. In [13], this molecule returned a TGI of more than 100 µM.

For the molecule `CC(=O)NC1C(OCc2ccccc2)OC(CO)C(O)C1OCC(=O)NC(C)C(=O)NC(CCC(=O)Nc1ccc2c(c1)CN1C(=O)c3ccccc3C1=N2)C(N)=O` (configuration not stated), the TGI in experiment [1], in experiment [2], in [3], in [4], in experiment [5] and in experiment [6] was more than 100 µM throughout. Further, the TGI in experiment [7], in [8], in [9], in experiment [10], in experiment [11] and in experiment [12] was more than 100 µM in each case. The molecule further displayed a TGI in experiment [13] of more than 100 µM.

As to `O=C1C(c2c(O)n(-c3ccccc3)c3ccccc23)=Nc2ccccc21`, the TGI in experiment [1], in experiment [2], in experiment [3], in [4], in experiment [5] and in experiment [6] was more than 100 µM throughout. For the same molecule, the TGI in experiment [7] is 69.8 µM; in [8], more than 100 µM; in [9] it was more than 100 µM; in experiment [10], more than 100 µM; in [11], 79.5 µM; in experiment [12], more than 100 µM. The TGI in experiment [13] stood at 53.6 µM.

Consider `CC(=O)N(CCc1ccccc1)C(C)(C#N)c1ccccc1` (configuration not stated), for which the TGI in [1], in experiment [2], in [3], in [4], in experiment [5] and in [6] was more than 100 µM each time. For the same molecule, the TGI in [7], in experiment [8], in experiment [9], in experiment [10], in [11] and in experiment [12] was more than 100 µM each time. Moreover, the TGI in experiment [13] was more than 100 µM.

As for `O=C1Nc2ccccc2/C1=C\c1c(Cl)[nH]c2ccccc12`, the TGI in experiment [1] was found to be 6.15 µM; in experiment [2], 1.2 µM; in [3], 17.5 µM; in experiment [4] it was 1.31 µM; in [5] it was 5.45 µM; in experiment [6], 6.22 µM. The TGI in [7] was 2.04 µM; in experiment [8] it was 5.05 µM; in experiment [9], 0.78 µM; in [10] it was 9.15 µM; in experiment [11], 13.1 µM; in [12] it was 0.918 µM. In [13], the TGI amounted to 6.65 µM.

Turning to `COC(=O)C(CCCCNC(=O)OCc1ccccc1)NC(=O)C(CCC(=O)OCc1ccccc1)NC(=O)OC(C)(C)C` (configuration not stated) (Boc-Glu(OBn)-Lys(Cbz)-OMe; configuration not given here), the TGI in experiment [1], in [2], in [3], in experiment [4], in experiment [5] and in experiment [6] was more than 100 µM throughout. Further, the TGI in [7], in experiment [8], in [9], in experiment [10], in experiment [11] and in experiment [12] was more than 100 µM in each case. The TGI in experiment [13] is more than 100 µM.

For the molecule `CCCN=C1S/C(=C/c2ccc(OC)c(OC)c2)C(=O)N1c1ccccc1`, the TGI in experiment [1] was more than 100 µM; in [2], 37.8 µM; in [3], more than 100 µM; in experiment [4] it was more than 100 µM; in [5] it was more than 100 µM; in experiment [6] it was more than 100 µM. Also, the TGI was more than 100 µM in [7]; more than 100 µM in experiment [8]; more than 100 µM in [9]; 38.7 µM in [10]; more than 100 µM in [11]; more than 100 µM in experiment [12]. This molecule also returned a TGI in [13] of 55.2 µM.

The values are drawn from PubChem BioAssay (NCI).
